Measured values published in article PMC11711049 (Cancer Science, 2024).

System: patients with advanced gastric cancer and cholangiocarcinoma
Assay: Safety assessments
Format: in vivo, human
[1] = 16 evaluable patients, 140 mg once daily

CNC(=O)n1ccc2cc(Oc3ccnc(NC(=O)c4ccc(C5CCN(CCO)CC5)cc4)c3)c(OCCOC)cc21 [Tasurgratinib]
Malaise, TEAEs All grades (140 mg once daily, N = 16): 2 (12.5) n (%)
Malaise, TEAEs Grade ≥3 (140 mg once daily, N = 16): 0 (0.0) n (%)
Malaise, TRAEs All grades (140 mg once daily, N = 16): 2 (12.5) n (%)
Malaise, TRAEs Grade ≥3 (140 mg once daily, N = 16): 0 (0.0) n (%)
Nail disorder, TEAEs All grades (140 mg once daily, N = 16): 2 (12.5) n (%)
Nail disorder, TEAEs Grade ≥3 (140 mg once daily, N = 16): 0 (0.0) n (%)
Nail disorder, TRAEs All grades (140 mg once daily, N = 16): 2 (12.5) n (%)
Nail disorder, TRAEs Grade ≥3 (140 mg once daily, N = 16): 0 (0.0) n (%)
Nasopharyngitis, TEAEs All grades (140 mg once daily, N = 16): 2 (12.5) n (%)
Nasopharyngitis, TEAEs Grade ≥3 (140 mg once daily, N = 16): 0 (0.0) n (%)
Nasopharyngitis, TRAEs All grades (140 mg once daily, N = 16): 0 (0.0) n (%)
Nasopharyngitis, TRAEs Grade ≥3 (140 mg once daily, N = 16): 0 (0.0) n (%)
PPE syndrome, TEAEs All grades (140 mg once daily, N = 16): 10 (62.5) n (%)
PPE syndrome, TEAEs Grade ≥3 (140 mg once daily, N = 16): 0 (0.0) n (%)
PPE syndrome, TRAEs All grades (140 mg once daily, N = 16): 10 (62.5) n (%)
PPE syndrome, TRAEs Grade ≥3 (140 mg once daily, N = 16): 0 (0.0) n (%)
Paronychia, TEAEs All grades (140 mg once daily, N = 16): 9 (56.3) n (%)
Paronychia, TEAEs Grade ≥3 (140 mg once daily, N = 16): 0 (0.0) n (%)
Paronychia, TRAEs All grades (140 mg once daily, N = 16): 8 (50.0) n (%)
Paronychia, TRAEs Grade ≥3 (140 mg once daily, N = 16): 0 (0.0) n (%)
Platelet count decreased, TEAEs All grades (140 mg once daily, N = 16): 2 (12.5) n (%)
Platelet count decreased, TEAEs Grade ≥3 (140 mg once daily, N = 16): 0 (0.0) n (%)
Platelet count decreased, TRAEs All grades (140 mg once daily, N = 16): 1 (6.3) n (%)
Platelet count decreased, TRAEs Grade ≥3 (140 mg once daily, N = 16): 0 (0.0) n (%)
Pruritus, TEAEs All grades (140 mg once daily, N = 16): 2 (12.5) n (%)
Pruritus, TEAEs Grade ≥3 (140 mg once daily, N = 16): 0 (0.0) n (%)
Pruritus, TRAEs All grades (140 mg once daily, N = 16): 2 (12.5) n (%)
Pruritus, TRAEs Grade ≥3 (140 mg once daily, N = 16): 0 (0.0) n (%)
Pyrexia, TEAEs All grades (140 mg once daily, N = 16): 3 (18.8) n (%)
Pyrexia, TEAEs Grade ≥3 (140 mg once daily, N = 16): 0 (0.0) n (%)
Pyrexia, TRAEs All grades (140 mg once daily, N = 16): 1 (6.3) n (%)
Pyrexia, TRAEs Grade ≥3 (140 mg once daily, N = 16): 0 (0.0) n (%)
Stomatitis, TEAEs All grades (140 mg once daily, N = 16): 6 (37.5) n (%)
Stomatitis, TEAEs Grade ≥3 (140 mg once daily, N = 16): 1 (6.3) n (%)
Stomatitis, TRAEs All grades (140 mg once daily, N = 16): 6 (37.5) n (%)
Stomatitis, TRAEs Grade ≥3 (140 mg once daily, N = 16): 0 (0.0) n (%)
Tumor pain, TEAEs All grades (140 mg once daily, N = 16): 2 (12.5) n (%)
Tumor pain, TEAEs Grade ≥3 (140 mg once daily, N = 16): 1 (6.3) n (%)
Tumor pain, TRAEs All grades (140 mg once daily, N = 16): 0 (0.0) n (%)
Tumor pain, TRAEs Grade ≥3 (140 mg once daily, N = 16): 0 (0.0) n (%)
Tumor‐associated fever, TEAEs All grades (140 mg once daily, N = 16): 2 (12.5) n (%)
Tumor‐associated fever, TEAEs Grade ≥3 (140 mg once daily, N = 16): 0 (0.0) n (%)
Tumor‐associated fever, TRAEs All grades (140 mg once daily, N = 16): 0 (0.0) n (%)
Tumor‐associated fever, TRAEs Grade ≥3 (140 mg once daily, N = 16): 0 (0.0) n (%)
Vomiting, TEAEs All grades (140 mg once daily, N = 16): 2 (12.5) n (%)
Vomiting, TEAEs Grade ≥3 (140 mg once daily, N = 16): 1 (6.3) n (%)
Vomiting, TRAEs All grades (140 mg once daily, N = 16): 0 (0.0) n (%)
Vomiting, TRAEs Grade ≥3 (140 mg once daily, N = 16): 0 (0.0) n (%)
Weight decreased, TEAEs All grades (140 mg once daily, N = 16): 2 (12.5) n (%)
Weight decreased, TEAEs Grade ≥3 (140 mg once daily, N = 16): 0 (0.0) n (%)
Weight decreased, TRAEs All grades (140 mg once daily, N = 16): 0 (0.0) n (%)
Weight decreased, TRAEs Grade ≥3 (140 mg once daily, N = 16): 0 (0.0) n (%)
any‐grade TEAE: ALT increased [1]: 18.8%
any‐grade TEAE: AST increased [1]: 25.0%
any‐grade TEAE: abdominal distension [1]: 25.0%
any‐grade TEAE: anemia [1]: 25.0%
any‐grade TEAE: blood alkaline phosphatase increased [1]: 18.8%
any‐grade TEAE: blood creatinine increased [1]: 31.3%
any‐grade TEAE: constipation [1]: 18.8%
any‐grade TEAE: decreased appetite [1]: 43.8%
any‐grade TEAE: diarrhea [1]: 37.5%
any‐grade TEAE: dry mouth [1]: 18.8%
any‐grade TEAE: dry skin [1]: 18.8%
any‐grade TEAE: dysgeusia [1]: 37.5%
any‐grade TEAE: hyperphosphatemia [1]: 100%
any‐grade TEAE: hypoalbuminemia [1]: 18.8%
any‐grade TEAE: palmar‐plantar erythrodysesthesia (PPE) syndrome [1]: 62.5%
any‐grade TEAE: paronychia [1]: 56.3%
any‐grade TEAE: pyrexia [1]: 18.8%
any‐grade TEAE: stomatitis [1]: 37.5%
any‐grade treatment‐related TEAE: ALT increased (16 patients, 140 mg once daily): 12.5%
any‐grade treatment‐related TEAE: AST increased (16 patients, 140 mg once daily): 18.8%
any‐grade treatment‐related TEAE: PPE syndrome (16 patients, 140 mg once daily): 62.5%
any‐grade treatment‐related TEAE: blood creatinine increased (16 patients, 140 mg once daily): 18.8%
any‐grade treatment‐related TEAE: decreased appetite (16 patients, 140 mg once daily): 12.5%
any‐grade treatment‐related TEAE: diarrhea (16 patients, 140 mg once daily): 25.0%
any‐grade treatment‐related TEAE: dry mouth (16 patients, 140 mg once daily): 18.8%
any‐grade treatment‐related TEAE: dry skin (16 patients, 140 mg once daily): 18.8%
any‐grade treatment‐related TEAE: dysgeusia (16 patients, 140 mg once daily): 31.3%
any‐grade treatment‐related TEAE: hyperphosphatemia (16 patients, 140 mg once daily): 100%
any‐grade treatment‐related TEAE: malaise (16 patients, 140 mg once daily): 12.5%
any‐grade treatment‐related TEAE: nail disorder (16 patients, 140 mg once daily): 12.5%
any‐grade treatment‐related TEAE: paronychia (16 patients, 140 mg once daily): 50.0%
any‐grade treatment‐related TEAE: pruritus (16 patients, 140 mg once daily): 12.5%
any‐grade treatment‐related TEAE: stomatitis (16 patients, 140 mg once daily): 37.5%
grade ≥3 treatment‐related TEAE: AST increased (16 patients, 140 mg once daily): 1 n
grade ≥3 treatment‐related TEAE: lipase increased (16 patients, 140 mg once daily): 1 n
grade ≥3 treatment‐related TEAE: retinopathy (16 patients, 140 mg once daily): 1 n
patients who experienced a TEAE of grade ≥3 (16 patients, 140 mg once daily): 68.8%
patients with treatment‐emergent SAEs (five of 16 patients, 140 mg once daily): 31.3%
total treatment‐emergent serious AEs (SAEs) reported (in five patients, 140 mg once daily): 11
eye disorder: dry eye (n = 2): 12.5%
recommended dose for subsequent phase II evaluation (once daily): 140 mg
patients with TEAEs leading to discontinuation of the study drug (one patient (cholecystitis acute and septic shock, not related)): 6.3%
patients with dose reductions due to treatment‐related TEAEs (six of 16 patients): 37.5%
patients with eye disorder events (thirteen events in seven patients): 43.8%
patients who experienced grade ≥3 treatment‐related TEAEs (two of 16 patients, 140 mg once daily): 12.5%
